Assay [1] deals with T1, Cyclin-G-associated kinase (Homo sapiens) (UniProt O14976).
T1 sequence (whole entry): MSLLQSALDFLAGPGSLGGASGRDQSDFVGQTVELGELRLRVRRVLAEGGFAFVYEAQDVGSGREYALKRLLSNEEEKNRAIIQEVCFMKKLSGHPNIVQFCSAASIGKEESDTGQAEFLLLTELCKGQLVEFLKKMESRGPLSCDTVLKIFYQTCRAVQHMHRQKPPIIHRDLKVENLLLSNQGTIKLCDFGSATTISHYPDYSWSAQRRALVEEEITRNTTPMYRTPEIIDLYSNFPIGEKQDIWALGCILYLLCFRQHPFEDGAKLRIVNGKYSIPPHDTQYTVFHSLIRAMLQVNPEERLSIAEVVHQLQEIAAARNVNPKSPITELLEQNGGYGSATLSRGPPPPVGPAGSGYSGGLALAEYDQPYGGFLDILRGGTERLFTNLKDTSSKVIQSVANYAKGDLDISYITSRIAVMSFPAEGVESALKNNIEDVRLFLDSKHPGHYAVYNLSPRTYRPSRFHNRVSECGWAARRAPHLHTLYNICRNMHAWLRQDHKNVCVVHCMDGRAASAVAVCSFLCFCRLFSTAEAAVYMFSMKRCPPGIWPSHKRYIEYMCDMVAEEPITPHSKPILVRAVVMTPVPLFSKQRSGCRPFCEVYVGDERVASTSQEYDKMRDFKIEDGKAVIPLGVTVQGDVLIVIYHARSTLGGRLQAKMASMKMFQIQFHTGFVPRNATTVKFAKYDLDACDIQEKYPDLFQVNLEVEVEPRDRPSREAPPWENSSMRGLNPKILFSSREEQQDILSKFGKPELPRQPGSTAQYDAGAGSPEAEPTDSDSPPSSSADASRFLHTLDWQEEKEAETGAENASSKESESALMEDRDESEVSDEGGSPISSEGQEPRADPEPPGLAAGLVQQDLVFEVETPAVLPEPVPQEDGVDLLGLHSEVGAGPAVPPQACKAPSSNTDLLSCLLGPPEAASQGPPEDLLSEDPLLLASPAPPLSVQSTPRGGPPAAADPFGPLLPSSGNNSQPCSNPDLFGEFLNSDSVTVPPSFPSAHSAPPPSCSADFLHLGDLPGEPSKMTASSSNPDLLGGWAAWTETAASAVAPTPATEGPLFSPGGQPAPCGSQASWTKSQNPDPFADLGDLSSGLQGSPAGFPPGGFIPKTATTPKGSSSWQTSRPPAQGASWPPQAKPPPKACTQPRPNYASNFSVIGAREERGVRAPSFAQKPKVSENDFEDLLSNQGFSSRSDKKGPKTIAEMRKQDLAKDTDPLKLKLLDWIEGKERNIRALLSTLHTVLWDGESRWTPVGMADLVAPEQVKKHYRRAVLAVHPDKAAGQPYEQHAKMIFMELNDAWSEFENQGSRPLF
As to the kind of experiment: Induction of GAK degradation in human Toledo cells assessed as decrease in protein abundance at 1 uM measured after 6 hrs by quantitative mass spectrometry. The assay is classed as cell-based.

Assay [2] addresses BMP-2-inducible protein kinase (Homo sapiens) (UniProt Q9NSY1). As to the kind of experiment: Inhibition of wild-type human partial length BIKE (S34 to N329 residues) expressed in bacterial expression system at 1 uM by Kinomescan method.
Assay [3] concerns the target T2, von Hippel-Lindau disease tumor suppressor/Interleukin-1 receptor-associated kinase 1 (Homo sapiens, UniProt P51617+P40337). As to the kind of experiment: Protac activity at IRAK1/VHL E3 ligase in HEK293T cells assessed as induction of IRAK1 degradation at 1 uM measured after 24 hrsin presence of VH298 by Western blot analysis. The class given is cell-based. The note with it: time 24.0 hrs. Background: In western blotting, separated proteins are transferred to a membrane and probed.
Target sequence in this assay (P40337 whole entry, looked up): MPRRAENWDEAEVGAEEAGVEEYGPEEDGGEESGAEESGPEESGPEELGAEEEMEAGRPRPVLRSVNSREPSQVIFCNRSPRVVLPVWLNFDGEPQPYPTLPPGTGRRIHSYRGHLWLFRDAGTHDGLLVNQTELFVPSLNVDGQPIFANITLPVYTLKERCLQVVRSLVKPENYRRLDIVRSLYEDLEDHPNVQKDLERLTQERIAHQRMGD
Target sequence in this assay (P51617 whole entry, looked up): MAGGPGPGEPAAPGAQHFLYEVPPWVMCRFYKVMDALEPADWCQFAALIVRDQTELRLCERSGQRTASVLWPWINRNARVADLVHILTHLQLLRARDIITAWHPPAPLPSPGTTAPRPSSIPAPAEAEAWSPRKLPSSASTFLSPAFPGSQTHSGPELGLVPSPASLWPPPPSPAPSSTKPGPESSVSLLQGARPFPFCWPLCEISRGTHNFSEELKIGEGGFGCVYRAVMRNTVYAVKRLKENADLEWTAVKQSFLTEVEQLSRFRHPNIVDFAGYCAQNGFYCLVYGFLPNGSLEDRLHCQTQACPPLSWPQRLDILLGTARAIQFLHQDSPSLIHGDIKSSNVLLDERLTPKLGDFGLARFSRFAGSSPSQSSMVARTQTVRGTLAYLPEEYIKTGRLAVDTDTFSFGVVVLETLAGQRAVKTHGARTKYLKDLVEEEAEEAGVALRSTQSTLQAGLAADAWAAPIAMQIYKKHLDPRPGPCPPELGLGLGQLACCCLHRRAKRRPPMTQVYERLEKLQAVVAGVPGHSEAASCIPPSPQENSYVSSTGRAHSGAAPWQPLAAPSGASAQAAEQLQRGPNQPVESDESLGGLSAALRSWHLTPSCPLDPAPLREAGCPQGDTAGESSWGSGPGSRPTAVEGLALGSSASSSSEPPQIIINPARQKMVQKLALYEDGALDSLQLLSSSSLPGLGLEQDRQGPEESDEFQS

Assay [4] addresses NmrA-like family domain-containing protein 1 (Homo sapiens) (UniProt Q9HBL8). As to the kind of experiment: Induction of NMRAL1 degradation in human Toledo cells assessed as decrease in protein abundance at 1 uM measured after 6 hrs by quantitative mass spectrometry. The class given is cell-based.
The target of assay [5] is T2, von Hippel-Lindau disease tumor suppressor/Interleukin-1 receptor-associated kinase 1. Nature of the assay: Protac activity at IRAK1/VHL E3 ligase in HEK293T cells assessed as induction of IRAK1 degradation at 10 uM measured after 24 hrs by Western blot analysis relative to control. The assay is classed as cell-based.
Target sequence in this assay (P40337 whole entry, looked up): as the sequence (P40337 whole entry, looked up) above
Target sequence in this assay (P51617 whole entry, looked up): as the sequence (P51617 whole entry, looked up) above
The target in assay [6] is T1, Cyclin-G-associated kinase (Homo sapiens). Nature of the assay: Inhibition of wild-type human partial length GAK (G13 to Y338 residues) expressed in bacterial expression system at 1 uM by Kinomescan method relative to control.
The target is the same in assay [7]. As to the kind of experiment: Induction of GAK degradation in human Toledo cells at 1 uM measured after 6 hrs by quantitative mass spectrometry relative to control. The class given is cell-based.
For assay [8], the target named is T2, von Hippel-Lindau disease tumor suppressor/Interleukin-1 receptor-associated kinase 1. As to the kind of experiment: Protac activity at IRAK1/VHL E3 ligase in HEK293T cells assessed as induction of IRAK1 degradation measured after 24 hrs by Western blot analysis. The assay is classed as cell-based.
Target sequence in this assay (P51617 whole entry): as the sequence (P51617 whole entry, looked up) above
Target sequence in this assay (P40337 whole entry): as the sequence (P40337 whole entry, looked up) above
Assay [9] can be described thus: Cytotoxicity against human HBL1 cells assessed as reduction in cell viability measured after 12 days by CellTiter-Glo assay. The assay is classed as functional. The following applies: time 12 day. On the technique in general: In ATP-based viability assays light output follows the ATP content of the culture.
Assay [10] has as its target T3, Interleukin-1 receptor-associated kinase 1 (Homo sapiens, UniProt P51617). As to the kind of experiment: Inhibition of IRAK1 in human HBL1 cells assessed as reduction in phosphorylated IKBA level at up to 1 uM measured after 24 hrs by Western blot analysis. The class given is cell-based. The following applies: dose microM <=1, time 24.0 hrs.
In assay [11] the target is T4, Interleukin-1 receptor-associated kinase 4 (Homo sapiens, UniProt Q9NWZ3).
T4 sequence (Q9NWZ3 whole entry): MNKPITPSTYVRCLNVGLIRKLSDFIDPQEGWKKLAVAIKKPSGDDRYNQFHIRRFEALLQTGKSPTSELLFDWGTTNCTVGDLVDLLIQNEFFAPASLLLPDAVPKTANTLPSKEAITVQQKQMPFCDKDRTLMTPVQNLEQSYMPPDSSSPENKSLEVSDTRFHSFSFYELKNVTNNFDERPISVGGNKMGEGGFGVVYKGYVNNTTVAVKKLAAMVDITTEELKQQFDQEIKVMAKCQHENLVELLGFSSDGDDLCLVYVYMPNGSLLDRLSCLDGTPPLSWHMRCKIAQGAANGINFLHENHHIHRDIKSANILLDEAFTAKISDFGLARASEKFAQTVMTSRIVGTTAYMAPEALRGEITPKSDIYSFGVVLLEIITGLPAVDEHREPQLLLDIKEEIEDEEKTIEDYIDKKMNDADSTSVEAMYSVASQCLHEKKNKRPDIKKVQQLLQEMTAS
As to the kind of experiment: Inhibition of full length human N-terminal GST-fusion tagged IRAK4 expressed in baculovirus expression system using FAM-labelled peptide as substrate preincubated for 10 mins followed by substrate addition and further incubated for 1 hr in presence of ATP at Km concentration by caliper mobility shift assay.

In assay [12] the target is T3, Interleukin-1 receptor-associated kinase 1. As to the kind of experiment: Induction of IRAK1 degradation in human Toledo cells assessed as decrease in protein abundance at 1 uM measured after 6 hrs by quantitative mass spectrometry. The assay is classed as cell-based.

Activity calls are given as the source filed them. The rule behind the calls is not given here.

We go through one compound from ChEMBL document CHEMBL5029152, “Discovery of Highly Potent and Selective IRAK1 Degraders to Probe Scaffolding Functions of IRAK1 in ABC DLBCL” (J Med Chem, 2021).

For orientation: inhibition means the relative decrease from the control value, in per cent. Broadly, the DC50 is the concentration giving 50% degradation. A word on the IC50: it is the concentration at which inhibition is half-maximal.

T3 sequence (P51617 whole entry, looked up): as the sequence (P51617 whole entry, looked up) above
Sequence of NmrA-like family domain-containing protein 1 (Homo sapiens) (Q9HBL8 whole entry, the tested form may be a part): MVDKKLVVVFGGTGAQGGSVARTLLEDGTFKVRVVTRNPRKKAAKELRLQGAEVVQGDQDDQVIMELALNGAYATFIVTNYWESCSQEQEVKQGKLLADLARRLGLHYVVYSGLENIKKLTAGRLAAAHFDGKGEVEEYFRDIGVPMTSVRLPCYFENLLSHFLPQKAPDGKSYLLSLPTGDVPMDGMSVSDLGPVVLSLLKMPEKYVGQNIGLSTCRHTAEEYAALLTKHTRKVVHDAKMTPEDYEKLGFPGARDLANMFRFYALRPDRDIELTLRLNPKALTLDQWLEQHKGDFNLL
Sequence of BMP-2-inducible protein kinase (Homo sapiens) (Q9NSY1 whole entry, looked up, the tested form may be a part): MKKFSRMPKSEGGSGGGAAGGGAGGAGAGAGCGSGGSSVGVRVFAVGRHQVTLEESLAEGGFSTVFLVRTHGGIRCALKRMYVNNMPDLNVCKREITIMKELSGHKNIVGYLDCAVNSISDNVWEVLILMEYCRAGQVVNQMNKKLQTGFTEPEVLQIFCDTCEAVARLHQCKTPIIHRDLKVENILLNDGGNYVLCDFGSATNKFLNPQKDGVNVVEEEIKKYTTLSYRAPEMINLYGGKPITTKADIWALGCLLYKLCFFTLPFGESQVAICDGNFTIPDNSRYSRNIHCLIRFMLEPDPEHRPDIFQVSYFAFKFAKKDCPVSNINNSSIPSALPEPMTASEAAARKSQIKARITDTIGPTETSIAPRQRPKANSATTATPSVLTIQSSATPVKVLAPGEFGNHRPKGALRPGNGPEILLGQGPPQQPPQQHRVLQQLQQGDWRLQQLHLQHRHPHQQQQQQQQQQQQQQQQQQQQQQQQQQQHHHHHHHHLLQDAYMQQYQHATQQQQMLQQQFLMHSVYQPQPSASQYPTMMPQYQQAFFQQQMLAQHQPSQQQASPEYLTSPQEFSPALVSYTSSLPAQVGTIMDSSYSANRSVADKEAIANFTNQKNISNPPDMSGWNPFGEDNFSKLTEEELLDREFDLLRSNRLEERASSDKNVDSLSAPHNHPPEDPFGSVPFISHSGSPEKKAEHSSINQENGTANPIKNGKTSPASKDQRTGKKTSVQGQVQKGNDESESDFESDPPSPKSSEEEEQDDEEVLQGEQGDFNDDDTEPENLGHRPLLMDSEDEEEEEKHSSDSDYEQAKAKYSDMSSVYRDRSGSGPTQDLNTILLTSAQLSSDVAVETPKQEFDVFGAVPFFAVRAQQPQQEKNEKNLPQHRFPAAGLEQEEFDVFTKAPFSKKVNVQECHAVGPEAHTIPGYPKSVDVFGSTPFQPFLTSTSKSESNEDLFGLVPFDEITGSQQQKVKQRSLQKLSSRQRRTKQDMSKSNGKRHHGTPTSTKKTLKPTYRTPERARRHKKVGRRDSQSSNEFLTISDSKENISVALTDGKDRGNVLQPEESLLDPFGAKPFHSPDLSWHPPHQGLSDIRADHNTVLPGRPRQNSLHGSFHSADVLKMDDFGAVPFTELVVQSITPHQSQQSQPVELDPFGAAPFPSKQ

Turning to `COc1cc(N2CCC(OCC(=O)N[C@H](C(=O)N3C[C@H](O)C[C@H]3C(=O)N[C@@H](C)c3ccc(-c4scnc4C)cc3)C(C)(C)C)CC2)ccc1NC(=O)c1cccc(-c2ccn[nH]2)n1`, the result in assay [1], in assay [4] and in assay [12] was Active. The inhibition result in assay [2] and in assay [10] was “Active” each time. Further, in assay [3], the outcome was inactive. Further, the %max in assay [5] was 96%. This compound showed an inhibition in assay [6] of 63%. Besides, the Activity in assay [7] was 50%; in [9], 60 nM. The half-maximal degradation concentration (DC50) in assay [8] came out at 3.3 nM. For the same compound, in [11], the half-inhibitory concentration (IC50) worked out at 443 nM.
